# Results taken from US4405713A, “Process for the preparation of optically active anthracycline glycosides A and B” (priority 1981, dated 1983).
# Read-outs that look alike come from different tables or passages of the source.
# Experiments:
# P388 leukemia = experiment: antitumour activity against P388 leukemia in mice, survival time; type: in vivo, male CDF1 mice; settings: i.p., days 1, 5 and 9; for Mean survival: control 10.6 ± 0.6
# Method: 4-Deoxy-aclacinomycin A obtained in the present invention was tested against P388 leukemia in mice. When male CDF1 mice (5 week old) were inoculated with 10^6 of P388 leukemia cells intraperitoneally and the antibiotic was administered through the same route on days 1, 5 and 9, the survival time of the treated mice was prolonged as shown in Table 6.
# [1] = system: Bacillus subtilis IAM 1027; experiment: in vitro minimum inhibitory concentration (MIC), agar streak method; type: cell-based; settings: IAM1027
# [2] = system: Staphylococcus aureus 209P IAM 1011; experiment: as above; type: cell-based
# [3] = system: Staphylococcus epidermidis IFO 12993; experiment: as above; type: cell-based; settings: IFO12993
# [4] = system: Micrococcus flavus ATCC 10240; experiment: as above; type: cell-based; settings: ATCC10240
# [5] = system: Klebsiella pheumonia IFO 3512; experiment: as above; type: cell-based; settings: IFO3512
# [6] = system: Escherichia coli K-12 IAM 1264; experiment: as above; type: cell-based; settings: IAM1264
# [7] = system: Pseudomonas aeruginosa IFO 12689; experiment: as above; type: cell-based; settings: IFO12689
# [8] = toxicity (survival of treated mice); type: in vivo
# Method: All the mice treated with 100 mg/kg of 4-deoxy-aclacinomycin A, i.p., survived more than 7 days.
# [9] = system: Proteus vulgaris IAM 1025; experiment: in vitro minimum inhibitory concentration (MIC), agar streak method; type: cell-based; settings: IAM1025
# Sarcina lutea IAM 1009 = experiment: as above; type: cell-based; settings: Micrococcus luteus, IAM1009
smiles,measurement,setting,value
"CC[C@@]1(O)C[C@H](O[C@H]2C[C@H](N(C)C)[C@H](O[C@H]3C[C@H](O)[C@H](O[C@H]4CCC(=O)[C@H](C)O4)[C@H](C)O3)[C@H](C)O2)c2c(cc3c(c2O)C(=O)c2ccccc2C3=O)[C@H]1C(=O)OC [4-Deoxy-aclacinomycin A, 4-deoxy-aclacinomycin A]",Increase in life span (%),P388 leukemia; total dose 5.6 mg/Kg,8%
same,Mean survival,P388 leukemia; total dose 5.6 mg/Kg,11.5 ± 0.5 days
same,Increase in life span (%),P388 leukemia; total dose 11.3 mg/Kg,18%
same,Mean survival,P388 leukemia; total dose 11.3 mg/Kg,12.5 ± 0.5 days
same,Increase in life span (%),P388 leukemia; total dose 22.5 mg/Kg,23%
same,Mean survival,P388 leukemia; total dose 22.5 mg/Kg,13.0 ± 0.0 days
same,Increase in life span (%),P388 leukemia; total dose 45 mg/Kg,27%
same,Mean survival,P388 leukemia; total dose 45 mg/Kg,13.5 ± 0.5 days
same,Increase in life span (%),P388 leukemia; total dose 90 mg/Kg,57%
same,Mean survival,P388 leukemia; total dose 90 mg/Kg,16.5 ± 0.5 days
same,MIC,"[1]; Bacillus subtilis IAM 1027, read-out: MIC",0.39 µg/mL
same,MIC,"[2]; Staphylococcus aureus 209P IAM 1011, read-out: MIC",0.78 µg/mL
same,MIC,"[3]; Staphylococcus epidermidis IFO 12993, read-out: MIC",0.78 µg/mL
same,MIC,"[4]; Micrococcus flavus ATCC 10240, read-out: MIC",0.19 µg/mL
same,MIC,"[5]; Klebsiella pheumonia IFO 3512, read-out: MIC",> 100 µg/mL
same,MIC,"[6]; Escherichia coli K-12 IAM 1264, read-out: MIC",> 100 µg/mL
same,MIC,"[7]; Pseudomonas aeruginosa IFO 12689, read-out: MIC",> 100 µg/mL
same,survival of all the mice treated,"[8]; 100 mg/kg, i.p.",more than 7 days
same,toxicity as compared with that of aclacinomycin A,[8]; statement in words,very low as compared with that of aclacinomycin A
same,MIC,"[9]; Proteus vulgaris IAM 1025, read-out: MIC",> 100 µg/mL
same,MIC,"Sarcina lutea IAM 1009; Sarcina lutea IAM 1009, read-out: MIC",0.19 µg/mL
"CC[C@@]1(O)C[C@H](O[C@H]2C[C@H](N(C)C)[C@H](O[C@H]3C[C@@H]4OC5CC(=O)C(C)OC5O[C@@H]4[C@H](C)O3)[C@H](C)O2)c2c(cc3c(c2O)C(=O)c2ccccc2C3=O)[C@H]1C(=O)OC (stereo partly drawn) [4-Deoxy-aclacinomycin B, 4-deoxy-aclacinomycin B]",MIC,[1]; Bacillus subtilis,6.25 µg/mL
same,MIC,[2]; Staphylococcus aureus,3.13 µg/mL
same,MIC,[3]; Staphylococcus epidermidis,3.13 µg/mL
same,MIC,[4]; Micrococcus flavus,0.39 µg/mL
same,MIC,[5]; Klebsiella,> 100 µg/mL
same,MIC,[6]; Escherichia coli,> 100 µg/mL
same,MIC,[7]; Pseudomonas aeruginosa,> 100 µg/mL
same,MIC,[9]; Proteus vulgaris,> 100 µg/mL
same,MIC,Sarcina lutea IAM 1009,0.39 µg/mL
